Assays:
[1] = target: T1, human cloned 5-HT6 receptors (Homo sapiens, UniProt P50406); assay: 5-HT6 binding affinity, [3H]-LSD displacement on membranes of Hela cells expressing human cloned 5-HT6 receptors; conditions: [3H]-LSD 3.0 nM, Hela cell membranes, 120 min at room temperature; read-out: 5-HT6 Binding Ki
T1 construct: expressed in transfected cells; host or cells: HeLa cells (membrane preparation)
Experimental: The affinity of test compounds for the serotonin 5-HT6 receptor is evaluated in the following manner. Cultured Hela cells expressing human cloned 5-HT6 receptors are harvested and centrifuged at low speed (1,000×g) for 10.0 min to remove the culture media. The harvested cells are suspended in half volume of fresh physiological phosphate buffered saline solution and recentrifuged at the same speed. This operation is repeated. The collected cells are then homogenized in ten volumes of 50 mM Tris.HCl (pH 7.4) and 0.5 mM EDTA. The homogenate is centrifuged at 40,000×g for 30.0 min and the precipitate is collected. The obtained pellet is resuspended in 10 volumes of Tris.HCl buffer and recentrifuged at the same speed. The final pellet is suspended in a small volume of Tris.HCl buffer and the tissue protein content is determined in aliquots of 10-25 μl volumes. Bovine Serum Albumin is used as the standard in the protein determination according to the method described in Lowry et al., J. Biol. Chem., 193:265 (1951). The volume of the suspended cell membranes is adjusted to give a tissue protein concentration of 1.0 mg/ml of suspension. The prepared membrane suspension (10 times concentrated) is aliquoted in 1.0 ml volumes and stored at −70° C. until used in subsequent binding experiments.
Binding experiments are performed in a 96 well microtiter plate format, in a total volume of 200 μl. […] The test compounds are added in 20.0 μl volume.
The reaction is allowed to proceed in the dark for 120 min at room temperature, at which time, the bound ligand-receptor complex is filtered off on a 96 well unifilter with a Packard Filtermate® 196 Harvester. The bound complex caught on the filter disk is allowed to air dry and the radioactivity is measured in a Packard TopCount® equipped with six photomultiplier detectors, after the addition of 40.0 μl Microscint®−20 scintillant to each shallow well. The unifilter plate is heat-sealed and counted in a PackardTopCount® with a tritium efficiency of 31.0%.
Binding in the presence of varying concentrations of test compound is expressed as a percentage of specific binding in the absence of test compound. The results are plotted as log % bound versus log concentration of test compound. Nonlinear regression analysis of data points with a computer assisted program Prisms® yields both the IC50 and the Ki values of test compounds with 95% confidence limits.
The amount of displacement by the test compound is given in percent (%) inhibition and is derived from the following equation:
[formula] where B0 is the amount of CPM bound in the presence of the testing agent. NSB represents the CPM bound in the presence of a saturating concentration of a displacer and TB represents the total amount of CPM bound at zero (0) concentration of test compound.
Alternatively, a linear regression line of data points is plotted, from which the IC50 value is determined and the Ki value is determined based upon the following equation: Ki=IC50/(1+L/KD) where L is the concentration of the radioactive ligand used and KD is the dissociation constant of the ligand for the receptor, both expressed in nM.

T1 sequence (P50406 whole entry): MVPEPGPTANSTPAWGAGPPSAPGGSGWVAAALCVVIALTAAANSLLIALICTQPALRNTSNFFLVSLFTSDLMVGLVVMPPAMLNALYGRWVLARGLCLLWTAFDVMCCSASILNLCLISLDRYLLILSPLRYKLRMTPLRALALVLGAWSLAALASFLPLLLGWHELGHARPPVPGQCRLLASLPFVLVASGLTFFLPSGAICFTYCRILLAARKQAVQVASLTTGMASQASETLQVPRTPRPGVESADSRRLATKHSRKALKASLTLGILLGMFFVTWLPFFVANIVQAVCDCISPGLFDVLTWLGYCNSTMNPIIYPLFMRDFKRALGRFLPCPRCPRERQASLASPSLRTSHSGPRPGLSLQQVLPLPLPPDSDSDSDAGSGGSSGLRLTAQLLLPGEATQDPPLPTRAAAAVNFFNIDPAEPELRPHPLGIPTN

For `O=S(=O)(c1ccccc1)c1nn(-c2cccc(C(F)(F)F)c2)c2ccc(N3CCN(Cc4ccccc4)CC3)cc12` [Example 28], which Ki [1] is on record?
The Ki was 136 nM.

What about the melting point of the same compound?
Its melting point is 146 to 150 °C.

From patent US7560470B2, “Heterocyclyl-3-sulfonylindazoles as 5-hydroxytryptamine-6 ligands” (Wyeth, priority 2003, dated 2009)
